Tests used:
[1] = system: Female CF1 mice; test: Anorexia test, oral dose route (milk consumption of fasted mice); type: in vivo, mouse; conditions: for ED50: Mus musculus, oral, female CF1 mice fasted 17 to 21 hours, dose at which treated mice would consume 50% as much milk as controls, milk 1/2 h after dose, 30 min count; for food intake in mice: summary statement on Table I
Procedure: Female CF1 mice, which had been fasted for 17 to 21 hours, were dosed orally with the test compound (ten or more mice per dose). One-half hour later, each mouse was transferred to an individual compartment (13.3 cm×12.7 cm×12.7 cm) with a 0.64 cm×0.64 cm wire mesh floor. Inside each compartment was a brass bar (13 cm×1.2 cm×1.2 cm) in the top of which were ten shallow, round spot depressions (0.8 cm diameter). Each depression contained 0.05 ml of 50% sweetened condensed milk.
Thirty minutes after the mice were transferred into the compartments, the number of milk spots each mouse had consumed was counted. Fractions of spots consumed also were estimated and counted. The percent anorexigenic effect was estimated by comparison of the mean number of spots of milk consumed per mouse at a given dose with the mean number of spots consumed per vehicle-treated control mouse. Dose-response curves were plotted and from these the ED50%, the dose at which treated mice would be expected to consume 50% as much milk as control mice, was calculated.

[2] = system: Male CF1 mice; test: Anorexia test, subcutaneous dose route (milk consumption of fasted mice); type: in vivo; conditions: Mus musculus, sc, male CF1 mice fasted 17 to 21 hours, dose at which treated mice would consume 50% as much milk as controls, milk 7 1/2 to 15 min after dose, 10 min count
Procedure: Male CF1 mice, which had been fasted for 17 to 21 hours, were dosed subcutaneously with the test compound (20 mice per dose) and placed into an individual compartment (13.3 cm×12.7 cm×12.7 cm) with a 0.64 cm×0.64 cm wire mesh floor. 71/2 to 15 minutes later a black Lucite bar (13 cm×1.2 cm×1.2 cm) in the top of which were ten shallow round spot depressions (0.8 cm diameter) was inserted into each compartment. Each depression contained 0.05 ml of 50% sweetened condensed milk.
Ten minutes after the milk was presented to the mice, the number of milk spots each mouse had consumed was counted. Fractions of spots consumed also were estimated and counted. Dose-response curves were plotted and from these the ED50%, the dose at which treated mice would be expected to consume 50% as much milk as control mice, was calculated.

[3] = system: rats; conditions: sweetened Enfamil baby formula; subcutaneous; cited from earlier work
[4] = Analgesic/narcotic antagonist property; conditions: stated in words, no test described
[5] = system: mammals; conditions: oral; cited from earlier work
[6] = system: food-deprived rats; conditions: cited from earlier work
[7] = system: food-deprived mice; conditions: cited from earlier work

Row | Structure (SMILES) | ED50 [1] [mg/kg] | ED50 [2] [mg/kg] | fluid intake of rats [3] | other results
1 | CCNC(C)Cc1cccc(C(F)(F)F)c1 (centres unmarked) [Fenfluramine] | 13.5 | 7.6 |  | 
2 | C=CCN1CC[C@]23c4c5ccc(O)c4O[C@H]2[C@@H](O)C=C[C@H]3[C@H]1C5 [nalorphine, N-allylnormorphine] |  |  | reduced | 
3 | Oc1ccc2c3c1O[C@H]1CCC[C@@]4(O)[C@@H](C2)N(CC2CC2)CC[C@]314 [17-cyclopropylmethyl-4,5α-epoxymorphinan-3,14-diol] |  |  |  | analgesic/narcotic antagonist property [4]: narcotic antagonist
4 | Cl.Oc1ccc2c3c1O[C@H]1CCC[C@@]4(O)[C@@H](C2)N(CC2CC2)CC[C@]314 [Example 1, 17-Cyclopropylmethyl-4,5α-epoxymorphinan-3,14-diol, Hydrochloride] | 2.5 |  |  | food intake in mice [1]: decreased food intake
5 | O=C1CC[C@@]2(O)[C@H]3Cc4ccc(O)c5c4[C@@]2(CCN3CC2CC2)[C@H]1O5 [Naltrexone, (-)-17-cyclopropylmethyl-4,5α-epoxy-3,14-dihydroxymorphinan-6-one] | 3 | 0.4 | reduced | appetite suppression [5]: appetite suppression
6 | C=CCN1CC[C@]23c4c5ccc(O)c4O[C@H]2C(=O)CC[C@@]3(O)[C@H]1C5 [naloxone, N-allyl-14-hydroxy-7,8-dihydronormorphinone] |  |  | reduced | eating by food-deprived rats [6]: suppresses eating; eating by food-deprived mice [7]: not by food-deprived mice
7 | Oc1ccc2c3c1O[C@H]1CCC[C@@]4(O)[C@@H](C2)N(CC2CCC2)CC[C@]314 [17-cyclobutylmethyl-4,5α-epoxymorphinan-3,14-diol] |  |  |  | analgesic/narcotic antagonist property [4]: mixed analgesic/narcotic antagonist
8 | Cl.Oc1ccc2c3c1O[C@H]1CCC[C@@]4(O)[C@@H](C2)N(CC2CCC2)CC[C@]314 [Example 2, 17-Cyclobutylmethyl-4,5α-epoxymorphinan-3,14-diol, Hydrochloride] | 84 | 3.2 |  | food intake in mice [1]: decreased food intake
